Measured values from patent US20060141473A1, “Erk7 and erk8, novel diagnostic markers for cancer” (priority 2003, published 2006).
Residues, ends and D or L forms follow the SMILES beside them. *: point of attachment. Cbz = O=C(OCc1ccccc1)*

Key:
[1] = tested on: MAPK(ERK1/2); conditions: cells expressing MAPK(ERK1/2); cited from earlier work
[2] = tested on: ERK7/8; conditions: cited from earlier work
[3] = target: T1, bacterially expressed ERK7 (Rattus norvegicus, UniProt Q9Z2A6); experiment: ERK7 kinase assay, phosphorylation of GST-MBPtide, HRP-ELISA; type: biochemical; conditions: purified ERK7 5 nM
T1 construct: HIS-tag; made in house; host or cells: bacteria
T1 sequence (Q9Z2A6 1-547): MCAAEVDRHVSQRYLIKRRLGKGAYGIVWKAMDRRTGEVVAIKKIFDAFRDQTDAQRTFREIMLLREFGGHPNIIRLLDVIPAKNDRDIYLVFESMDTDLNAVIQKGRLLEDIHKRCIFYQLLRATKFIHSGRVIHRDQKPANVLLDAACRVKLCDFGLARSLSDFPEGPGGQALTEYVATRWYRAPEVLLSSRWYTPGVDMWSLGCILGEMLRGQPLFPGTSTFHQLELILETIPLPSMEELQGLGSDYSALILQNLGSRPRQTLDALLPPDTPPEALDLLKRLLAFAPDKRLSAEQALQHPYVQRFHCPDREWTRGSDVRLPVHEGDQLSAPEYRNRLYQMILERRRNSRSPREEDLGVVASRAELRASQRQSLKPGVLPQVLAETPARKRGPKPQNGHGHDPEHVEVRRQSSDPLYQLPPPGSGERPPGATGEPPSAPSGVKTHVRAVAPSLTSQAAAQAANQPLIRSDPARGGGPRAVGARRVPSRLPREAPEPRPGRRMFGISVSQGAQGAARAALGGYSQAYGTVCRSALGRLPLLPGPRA
Procedure: FIG. 1: is a graph representing the determination of the KM of ATP for bacterially expressed ERK7. Purified ERK7 (5 nM) was incubated in the presence of increasing ATP concentrations. The concentration of ATP supporting maximal velocity of the kinase reaction is 1 mM. The concentration of ATP supporting half-maximal velocity (KM) is ˜100 μM. Background is the measured signal from reactions carried out in the presence of 200 mM EDTA, which eliminates kinase activity. The background has not been subtracted from the ERK7 signal. Phosphorylation of the immobilized GST-MBPtide was detected using the HRP-ELISA as described in Example 1.
Kinase assays were developed to measure the activity of rat ERK7 and human ERK8. Purified, recombinant ERK7 and ERK8 were obtained by introducing a HIS-tag in frame with the coding sequence of the kinases, expressing the proteins in bacteria and purifying the proteins over a NiNTA resin (Qiagen, Valencia, Calif.). […]
The kinase assays were performed in a 96 well format according to the following procedure. […] All assays measured the initial velocity of reaction. […] HRP activity was measured using Western Lightning Chemiluminescence Reagent (NEL102, PerkinElmer Life Sciences) according to manufacturer's protocol. Maximum and minimum activity is the relative luminescence detected in the presence of vehicle and 200 mM EDTA, respectively. […]

[4] = tested on: ERα-regulated transcription; experiment: ERE-luciferase transcriptional analysis in MCF-7 stable lines; type: cell-based, human
[5] = tested on: ERα; experiment: ERα protein levels by immunoblot in transfected BHK cells treated with proteasome inhibitor; type: cell-based, hamster; conditions: presence and absence of estradiol
Procedure: BHK cells were transfected in 10 mm dishes with calcium phosphate and 1 μg of wild type or mutant ERα or FLAG-IκBα or HA-SF1 or HA-AR construct, 5 μg of a construct encoding a wild type or mutant kinase or vector control. At 8 h post transfection, the cells were washed with phosphate-buffered saline (PBS) and placed in Dulbecco's modified Eagle's medium (DMEM) with 5% fetal calf serum (FCS).

C=C1[C@@H](O)[C@@H]2O[C@]3(CC[C@H](/C=C/[C@@H](C)[C@@H]4CC(C)=C[C@@]5(O[C@H](C[C@@](C)(O)C(=O)O)CC[C@H]5O)O4)O3)CC[C@H]2O[C@@H]1[C@@H](O)C[C@H](C)[C@H]1O[C@@]2(CCCCO2)CC[C@H]1C [okadaic acid]
effect on amount of TEY phosphorylated MAPK(ERK1/2) [1]: increases | effect on ERK7/8 TEY phosphorylation [2]: no effect

Nc1ncnc2c1ncn2[C@@H]1O[C@H](COP(=O)(O)OP(=O)(O)OP(=O)(O)O)[C@@H](O)[C@H]1O [ATP]
concentration supporting maximal velocity of the kinase reaction [3]: 1 mM | Km ([3]; increasing ATP, read-out: KM (concentration supporting half-maximal velocity)): ~100 µM

CC(C)C[C@@H](C=O)NC(=O)[C@H](CC(C)C)NC(=O)[C@H](CC(C)C)NC(=O)OCc1ccccc1 [MG132] (Cbz-Leu-Leu-Leu-aldehyde)
effect on transcriptional response ([4]; MCF-7 cells stably expressing K43A-ERK7, ERE-luciferase reporter): not affected | increase of transcriptional response to estradiol ([4]; MCF-7 control (vector) stable cells, ERE-luciferase reporter): ~3 fold | effect on ERα protein levels [5]: increased ERα protein levels
